Test results from US20150037351A1, “NOVEL THERAPEUTIC TARGET FOR THE PREVENTION OF TUMOUR METASTASIS” (MAX-PLANCK-GESELLSCHAFT ZUR FORDERUNG DER WISSENSCHAFTEN …, priority 2012, published 2015).

What was measured:
P2Y2 receptors [1] = molecular target: T1, P2Y2 receptors (Homo sapiens, UniProt P41231); conditions: natural ligands of the human P2Y2 receptor; cited from earlier work
P2Y2 receptors [2] = molecular target: T1, P2Y2 receptors; conditions: cited from earlier work
MS1 endothelial cells = test: morphology of the endothelial monolayer (VE-cadherin/F-actin staining, discontinuous cellular junctions); type: cell-based, mouse
Procedure: (§1) The permeability assay was performed as described for the transwell assay with some modifications. Briefly, MS1 cells were cultured on transwell filters and the supernatant of platelets alone or platelets stimulated with tumour cells was mixed 1:1 with TB containing 2 mg/ml 70 kDa FITC-DX of which 50 μl were added to the upper compartment in the absence or presence of apyrase (20 U/ml). 250 μl TB were added to the lower compartment. After 90 min, the amount of passed FITC-DX to the lower compartment was measured (FlexStation3, Molecular Devices). For visualization of changes in the endothelial barrier, MS1 cells were stimulated for 1 h with supernatants from tumour cells alone or from tumour cells after stimulation with platelets in the absence or presence of apyrase (20 U/ml). Cells were further processed for staining and imaging
Cells or tissues were fixed with 4% para-formaldehyde. Tissues were further cryopreserved in 30% sucrose (Sigma), embedded in OCT (Fisher Scientific), and cryosectioned at 16 μm. Cells or sections were stained with rat anti-VE-Cadherin (BD Pharmingen) and Alexa Fluor (AF) 594- (Molecular Probes) or Cy5- (Dianova) conjugated secondary antibodies. DAPI (Sigma) was used to stain cell nuclei, and AF488-conjugated phalloidin (Molecular Probes) to stain F-actin. Images were acquired using a Leica SP5 confocal microscope and analyzed using ImageJ (NIH).

[3] = test system: MS1 endothelial cell layer; test: endothelial barrier permeability assay (FITC-dextran); type: cell-based, mouse
Procedure: as §1

B16 cells = test: transwell assay: tumour cell transmigration through an endothelial cell layer; type: cell-based, mouse
Procedure: MS1 cells (8×10^3 at seeding in 50 μl) or HUVEC (6×10^3 at seeding in 50 μl) were cultured for 2 days on 96-transwell plates with polyester membranes of 8-μm pore size (Corning) with medium changes every day. For knockdown experiments, 4×10^5 MS1 cells were transfected using Amaxa Nucleofector Kit V with different sets of siRNA against the P2Y2 receptor (Qiagen) and 1.2×10^4 cells in 50 μl were seeded to the up-per compartment. Where indicated, MS1 cells were pre-incubated with 5-BDBD (1 μM) or MRS2500 (100 nM) for 30 min. Before the experiment, exemplary wells of each condition were visually checked by calcein-AM staining of the endothelial monolayer and only plates with 100% confluency were used. For transmigration, the medium from the upper compartment was removed and 50 μl of a 1:1 mixture of platelets (2×10^8/ml) with calcein-AM-labeled tumour cells (8×10^5/ml) in TB was added to the upper compartment alone or with flurbiprofen (100 nM), ketanserin (3 nM) or apyrase (20 […] (10 μM) and 2MeSADP (10 μM) were added in the absence of platelets. For supernatant experiments, human platelets (5×10^7/ml) or mouse platelets (2×10^8/ml) were incubated for 30 min at 37° C. alone or with tumour cells (1.6×10^6/ml) and centrifuged at 350×g for 10 min. The supernatant was mixed 1:1 with TB (for MS1 cells) or cell culture medium (for HUVECs) containing calcein-AM-labeled tumour cells (8×10^5/ml) and 50 μl were added to the upper compartment. In all experiments, 250 μl TB or culture medium were added to the lower compartment, and tumour cells were allowed to transmigrate over night. On the next day, the non-transmigrated tumour cells from the upper compartment were removed and only the transmigrated tumour cells on the lower side of the filter or the bottom of the transwell were imaged (Zeiss Axio Observer.Z1 and Olympus IX81) and quantified with ImageJ (NIH). Each experiment was performed at least 3 times with a minimum of 5 wells per experiment.

[4] = B16 cells on MS1 endothelial cells with platelets, flurbiprofen 100 nM, ketanserin 3 nM, apyrase 20 U/ml

T1 sequence (P41231 whole entry): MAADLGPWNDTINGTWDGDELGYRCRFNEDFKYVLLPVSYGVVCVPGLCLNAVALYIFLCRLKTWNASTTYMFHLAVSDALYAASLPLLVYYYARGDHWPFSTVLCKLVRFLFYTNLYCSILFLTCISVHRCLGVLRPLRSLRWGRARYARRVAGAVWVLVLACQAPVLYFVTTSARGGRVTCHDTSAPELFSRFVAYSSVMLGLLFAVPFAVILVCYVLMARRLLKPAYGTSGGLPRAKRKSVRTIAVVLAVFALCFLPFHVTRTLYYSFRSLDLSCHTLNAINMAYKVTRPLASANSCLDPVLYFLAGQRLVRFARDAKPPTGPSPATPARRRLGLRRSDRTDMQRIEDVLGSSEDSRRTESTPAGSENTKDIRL

Nc1ncnc2c1ncn2[C@@H]1O[C@H](COP(=O)(O)OP(=O)(O)O)[C@@H](O)[C@H]1O [ADP]
EC50 (P2Y2 receptors [1]): considerably lower potency | agonist efficacy at P2Y2 receptors in comparison to ATP (P2Y2 receptors [2]): less effective agonist

Nc1ncnc2c1ncn2[C@@H]1O[C@H](COP(=O)(O)OP(=O)(O)OP(=O)(O)O)[C@@H](O)[C@H]1O [ATP]
tight interendothelial junctions (MS1 endothelial cells; ATP 10 μM, 30 min, MS1 cells): loss | endothelial permeability ([3]; ATP 10 μM, MS1 monolayer, FITC-dextran): increase

O=c1ccn([C@@H]2O[C@H](COP(=O)(O)OP(=O)(O)OP(=O)(O)O)[C@@H](O)[C@H]2O)c(=O)[nH]1 [UTP]
agonist efficacy at P2Y2 receptors in comparison to ATP (P2Y2 receptors [2]): full agonist

CC(C(=O)O)c1ccc(-c2ccccc2)c(F)c1 (stereo not shown) [flurbiprofen]
platelet-dependent facilitation of tumour cell transmigration (B16 cells; 0.1 µM): no effect

O=C(c1ccc(F)cc1)C1CCN(CCn2c(=O)[nH]c3ccccc3c2=O)CC1 [ketanserin]
platelet-dependent facilitation of tumour cell transmigration (B16 cells; [4]): no effect

apyrase
platelet-dependent facilitation of tumour cell transmigration (B16 cells; [4]): ablated | loss of tight interactions of endothelial cells in the monolayer induced by platelets with tumour cells (MS1 endothelial cells; apyrase 20 U/ml, 1 h): blocked | diffusion of FITC-labeled dextran over an endothelial cell layer enhanced by platelets with tumour cells ([3]; apyrase 20 U/ml, 90 min): blocked
